Reference: patent publication US8536202B2, “Triazole-substituted anthranilamides as pesticides” (Bayer Cropscience AG, priority 2010, dated 2013)
Read-outs that look alike come from different tables or passages of the source.

What was measured:
[1] = log P determination by HPLC on reversed-phase columns (EEC Directive 79/831 Annex V.A8); type: physicochemical; details: pH 2.7
Outline: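 log P from reversed-phase LC-MS retention at pH 2.7, 0.1% formic acid water/acetonitrile gradient 10–95% acetonitrile. Calibrated against C3–C16 unbranched alkan-2-ones, interpolating linearly between adjacent alkanones.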

[2] = test system: caterpillars of the armyworm (Spodoptera frugiperda); test: Spodoptera frugiperda test (SPODFR spray treatment); type: in vivo; details: 168 h, after 7 days; for pest or weed control at 100 g/ha: read-out: activity in %
Outline: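 Maize leaf discs sprayed with compound diluted in emulsifier-containing water (acetone/DMF solvent, alkylaryl polyglycol ether emulsifier), dried, then infested with armyworm caterpillars. Kill scored after 7 days as % mortality, 100% = all caterpillars dead, 0% = none.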

[3] = test system: larvae of the mustard beetle (Phaedon cochleariae); test: Phaedon test (PHAECO spray treatment); type: in vivo; details: 168 h, 100 g/ha, after 7 days, read-out: activity in %
Outline: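 Compound dissolved in acetone/dimethylformamide with alkylaryl polyglycol ether emulsifier, then diluted with emulsifier-containing water to test concentration for spray treatment of Phaedon cochleariae larvae. Activity scored after 7 days as % larvae killed (100% = all dead, 0% = none).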

[4] = reversed-phase C18 HPLC column, HPLC on reversed-phase columns (C 18), EEC Directive 79/831 Annex V.A8, read-out: logP

Compound | chromatographic logP [1] | pest or weed control at 100 g/ha [2] | pest or weed control at 100 g/ha [3] | chromatographic logP [1, 4] | pest or weed control at 20 g/ha ([2]; 20 g/ha)
CNC(=O)c1cc(F)cc(C)c1NC(=O)c1cc(Cn2ncc(C(F)(F)F)n2)nn1-c1ncccc1Cl [Example 167] | 2.63 | 100% | 100% | – | –
Cc1cc(F)cc(C(=O)NC(C)C2CC2)c1NC(=O)c1cc(Cn2ncc(C(F)(F)F)n2)nn1-c1ncccc1Cl (stereo not drawn) [Example 168] | 3.36 | 100% | 100% | – | –
Cc1cc(F)cc(C(=O)NC2CC2)c1NC(=O)c1cc(Cn2ncc(C(F)(F)F)n2)nn1-c1ncccc1Cl [Example 169] | 2.86 | 100% | 100% | – | –
Cc1cc(Br)cc(C(=O)NC(C)(C)C)c1NC(=O)c1cc(Cn2ncc(C(F)(F)F)n2)nn1-c1ncccc1Cl [Example 176] | 4.65 | 100% | 100% | – | –
CSC[C@H](C)NC(=O)c1cc(C#N)cc(C)c1NC(=O)c1cc(Cn2cc(C(F)(F)F)nn2)nn1-c1ncccc1Cl [Example 183] | 2.95 | 100% | 100% | – | –
Cc1cc(Cl)cc(C(=O)NC(C)C)c1NC(=O)c1cc(Cn2cc(C(F)(F)F)nn2)nn1-c1ncccc1Cl [Example 190] | 3.06 | 100% | 100% | – | –
Cc1cc(Cl)cc(C(=O)NCC2CC2)c1NC(=O)c1cc(Cn2cc(C(F)(F)F)nn2)nn1-c1ncccc1Cl [Example 195] | 3.22 | 100% | 100% | – | –
CC(NC(=O)c1cc(Cl)cc(Cl)c1NC(=O)c1cc(Cn2cc(C(F)(F)F)nn2)nn1-c1ncccc1Cl)C1CC1 (stereo not drawn) [Example 198] | 3.38 | 100% | 100% | – | –
CSC[C@H](C)NC(=O)c1cc(Cl)cc(Cl)c1NC(=O)c1cc(Cn2cc(C(F)(F)F)nn2)nn1-c1ncccc1Cl [Example 202] | 3.28 | 100% | 100% | – | –
O=C(NCC1CC1)c1cc(Cl)cc(Cl)c1NC(=O)c1cc(Cn2cc(C(F)(F)F)nn2)nn1-c1ncccc1Cl [Example 204] | 3.14 | 100% | 100% | – | –
N#CCNC(=O)c1cc(Cl)cc(Cl)c1NC(=O)c1cc(Cn2cc(C(F)(F)F)nn2)nn1-c1ncccc1Cl [Example 205] | 2.63 | 100% | 100% | – | –
CNC(=O)c1cc(I)cc(C)c1NC(=O)c1cc(Cn2cc(C(F)(F)F)nn2)nn1-c1ncccc1Cl [Example 206] | 2.86 | 100% | 100% | – | –
Cc1cc(I)cc(C(=O)NC(C)C2CC2)c1NC(=O)c1cc(Cn2cc(C(F)(F)F)nn2)nn1-c1ncccc1Cl (stereo not drawn) [Example 207] | 3.69 | 100% | 100% | – | –
Cc1cc(I)cc(C(=O)NC2CC2)c1NC(=O)c1cc(Cn2cc(C(F)(F)F)nn2)nn1-c1ncccc1Cl [Example 208] | 3.15 | 100% | 100% | – | –
CCNC(=O)c1cc(I)cc(C)c1NC(=O)c1cc(Cn2cc(C(F)(F)F)nn2)nn1-c1ncccc1Cl [Example 209] | 3.04 | 100% | 100% | – | –
Cc1cc(I)cc(C(=O)NC(C)C)c1NC(=O)c1cc(Cn2cc(C(F)(F)F)nn2)nn1-c1ncccc1Cl [Example 210] | 3.38 | 100% | 100% | – | –
Cc1cc(I)cc(C(=O)NC(C)(C)C)c1NC(=O)c1cc(Cn2cc(C(F)(F)F)nn2)nn1-c1ncccc1Cl [Example 211] | 3.72 | 100% | 100% | – | –
Cc1cc(I)cc(C(=O)NCC2CC2)c1NC(=O)c1cc(Cn2cc(C(F)(F)F)nn2)nn1-c1ncccc1Cl [Example 214] | 3.45 | 100% | 100% | – | –
Cc1cc(C#N)cc(C(=O)NC(C)C)c1NC(=O)c1cc(Cn2nncc2C(F)(F)F)nn1-c1ncccc1Cl [Example 216] | 2.63 | 100% | 100% | – | –
Cc1cc(Cl)cc(C(=O)NC(C)C2CC2)c1NC(=O)c1cc(Cn2cc(C(F)(C(F)(F)F)C(F)(F)F)nn2)nn1-c1ncccc1Cl (stereo not drawn) [Example 226] | – | – | 100% | 4.15 | 100%

Compound | chromatographic logP [1] | pest or weed control at 100 g/ha [2] | pest or weed control at 100 g/ha [3] | chromatographic logP [1, 4] | pest or weed control at 20 g/ha ([2]; 20 g/ha)
Cc1cc(Cl)cc(C(=O)NC(C)C)c1NC(=O)c1cc(Cn2cc(C(F)(C(F)(F)F)C(F)(F)F)nn2)nn1-c1ncccc1Cl [Example 227] | 3.85 | 100% | 100% | – | –
Cc1cc(Cl)cc(C(=O)NCC2CC2)c1NC(=O)c1cc(Cn2cc(C(F)(C(F)(F)F)C(F)(F)F)nn2)nn1-c1ncccc1Cl [Example 229] | – | 100% | 100% | 3.91 | –
CNC(=O)c1cc(I)cc(C)c1NC(=O)c1cc(Cn2cc(C(F)(C(F)(F)F)C(F)(F)F)nn2)nn1-c1ncccc1Cl [Example 233] | 3.59 | 100% | 100% | – | –
Cc1cc(I)cc(C(=O)NC(C)C2CC2)c1NC(=O)c1cc(Cn2cc(C(F)(C(F)(F)F)C(F)(F)F)nn2)nn1-c1ncccc1Cl (stereo not drawn) [Example 234] | – | 100% | 100% | 4.38 | –
Cc1cc(I)cc(C(=O)NC(C)C)c1NC(=O)c1cc(Cn2cc(C(F)(C(F)(F)F)C(F)(F)F)nn2)nn1-c1ncccc1Cl [Example 235] | 4.09 | 100% | 100% | – | –
Cc1cc(I)cc(C(=O)NC(C)(C)C)c1NC(=O)c1cc(Cn2cc(C(F)(C(F)(F)F)C(F)(F)F)nn2)nn1-c1ncccc1Cl [Example 236] | – | 100% | 100% | 4.43 | –
Cc1cc(I)cc(C(=O)NCC2CC2)c1NC(=O)c1cc(Cn2cc(C(F)(C(F)(F)F)C(F)(F)F)nn2)nn1-c1ncccc1Cl [Example 237] | – | 100% | 100% | 4.14 | –
Cc1cc(I)cc(C(=O)NC2CC2)c1NC(=O)c1cc(Cn2cc(C(F)(C(F)(F)F)C(F)(F)F)nn2)nn1-c1ncccc1Cl [Example 240] | 3.83 | 100% | 100% | – | –
CC(NC(=O)c1cc(Cl)cc(Cl)c1NC(=O)c1cc(Cn2cc(C(F)(C(F)(F)F)C(F)(F)F)nn2)nn1-c1ncccc1Cl)C1CC1 (stereo not drawn) [Example 242] | – | 100% | 100% | 4.08 | –
CC(C)NC(=O)c1cc(Cl)cc(Cl)c1NC(=O)c1cc(Cn2cc(C(F)(C(F)(F)F)C(F)(F)F)nn2)nn1-c1ncccc1Cl [Example 243] | 3.79 | 100% | 100% | – | –
CC(C)(C)NC(=O)c1cc(Cl)cc(Cl)c1NC(=O)c1cc(Cn2cc(C(F)(C(F)(F)F)C(F)(F)F)nn2)nn1-c1ncccc1Cl [Example 244] | – | 100% | 100% | 4.13 | –
O=C(NCC1CC1)c1cc(Cl)cc(Cl)c1NC(=O)c1cc(Cn2cc(C(F)(C(F)(F)F)C(F)(F)F)nn2)nn1-c1ncccc1Cl [Example 245] | – | 100% | 100% | 3.84 | –
O=C(NC1CC1)c1cc(Cl)cc(Cl)c1NC(=O)c1cc(Cn2cc(C(F)(C(F)(F)F)C(F)(F)F)nn2)nn1-c1ncccc1Cl [Example 248] | 3.56 | 100% | 100% | – | –
Cc1cc(C#N)cc(C(=O)NC(C)C2CC2)c1NC(=O)c1cc(Cn2ncc(C(F)(C(F)(F)F)C(F)(F)F)n2)nn1-c1ncccc1Cl (stereo not drawn) [Example 250] | – | 100% | 100% | 4.2 | –
Cc1cc(C#N)cc(C(=O)NC(C)C)c1NC(=O)c1cc(Cn2ncc(C(F)(C(F)(F)F)C(F)(F)F)n2)nn1-c1ncccc1Cl [Example 251] | – | 100% | 100% | 3.89 | –
Cc1cc(C#N)cc(C(=O)NC(C)(C)C)c1NC(=O)c1cc(Cn2ncc(C(F)(C(F)(F)F)C(F)(F)F)n2)nn1-c1ncccc1Cl [Example 252] | – | 100% | 100% | 4.21 | –
Cc1cc(C#N)cc(C(=O)NCC2CC2)c1NC(=O)c1cc(Cn2ncc(C(F)(C(F)(F)F)C(F)(F)F)n2)nn1-c1ncccc1Cl [Example 253] | – | 100% | 100% | 3.95 | –
Cc1cc(C#N)cc(C(=O)NC2CC2)c1NC(=O)c1cc(Cn2ncc(C(F)(C(F)(F)F)C(F)(F)F)n2)nn1-c1ncccc1Cl [Example 256] | – | 100% | 100% | 3.63 | –
CNC(=O)c1cc(Cl)cc(C)c1NC(=O)c1cc(Cn2ncc(C(F)(C(F)(F)F)C(F)(F)F)n2)nn1-c1ncccc1Cl [Example 257] | 3.76 | 100% | 100% | – | –
